pIC50: −log10 of the molar value. Calls of active or inactive are those of the source. The rule behind the calls is not given here.

Our source for the IC50 values is PubChem BioAssay AID548 (The Scripps Research Institute Molecular Screening Center, 2006).

The target of this experiment is cAMP-dependent protein kinase catalytic subunit alpha (Homo sapiens) (UniProt P17612). Put plainly: PubChem AID 548. Particulars: Purified PKA, Kemptide, Kinase-Glo ATP luminescence. On the technique in general: Kinase-Glo reads ATP consumption through a luciferase reaction.

As to `Nc1c(S(=O)(=O)c2cccc(Cl)c2)c2nc3ccccc3nc2n1/N=C/c1ccc(O)c(O)c1`, the IC50 is > 59.6 µM (inactive). As to `O/N=C/c1c[nH]c2ccccc12`, the pIC50 is 4.46.

As a reminder, the IC50 is the concentration that gives 50% inhibition. The term pIC50 denotes the negative decadic logarithm of the IC50, by convention in mol/L.
